Experimental data published in US6043279A, “Compounds having selective activity for retinoid X receptors, and means for modulation of processes mediated by retinoid X receptors” (priority 1997, dated 2000).

Columns and labels:
Assay type in all cases: cell-based
RARβ = biological target: T1, RARβ (Homo sapiens, UniProt P10826); assay: co-transfection (cis-trans) assay in CV-1 cells, RARβ; settings: for Emax: CV-1, maximal response relative to all-trans-retinoic acid at 10^-5 M, read-out: Efficacy RARβ; for EC50: CV-1 cells, luciferase reporter, concentration giving 50% of maximal observed response, read-out: Potency (nM) RARβ
T1 construct: expressed in transfected cells; host or cells: CV-1 (monkey kidney)
T1 sequence (P10826 1-448 isoform P10826-2): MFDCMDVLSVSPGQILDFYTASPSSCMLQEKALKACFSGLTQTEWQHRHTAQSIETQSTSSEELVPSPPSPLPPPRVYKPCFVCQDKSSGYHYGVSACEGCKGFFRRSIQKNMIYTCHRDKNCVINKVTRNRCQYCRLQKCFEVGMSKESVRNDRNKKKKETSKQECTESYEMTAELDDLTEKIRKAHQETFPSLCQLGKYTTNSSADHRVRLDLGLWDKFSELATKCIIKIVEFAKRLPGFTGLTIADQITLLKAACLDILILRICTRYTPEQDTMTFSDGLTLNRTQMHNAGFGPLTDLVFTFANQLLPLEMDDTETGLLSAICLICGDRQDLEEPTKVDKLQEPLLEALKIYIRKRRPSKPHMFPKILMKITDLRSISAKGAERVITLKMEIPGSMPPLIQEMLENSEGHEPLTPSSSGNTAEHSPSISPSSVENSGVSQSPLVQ
Source text: (§1) The co-transfection assay provides a mechanism to evaluate the ability of a compound to modulate the transcription response initiated by an intracellular receptor. […] Berger et al., J. Steroid Biochem. Molec.
(§2) Briefly, the co-transfection assay involves the introduction of two plasmids by transient transfection into a retinoid receptor-negative mammalian cell background. The first plasmid contains a retinoid receptor cDNA and directs constitutive expression of the encoded receptor. The second plasmid contains a cDNA that encodes for a readily quantifiable protein, e.g., firefly luciferase or chloramphenicol acetyl transferase (CAT), under control of a promoter containing a retinoid acid response element, which confers retinoid dependence on the transcription of the reporter. In this co-transfection assay, all retinoid receptors respond to all-trans-retinoic acid in a similar fashion. This assay can be used to accurately measure efficacy and potency of retinoic acid and synthetic retinoids as ligands that interact with the individual retinoid receptor subtypes.
(§3) Accordingly, synthetic retinoid compounds of the current invention were evaluated for their interaction with retinoid receptor subtypes using the co-transfection assay in which CV-1 cells were co-transfected with one of the retinoid receptor subtypes, a reporter construct, and an internal control to allow normalization of the response for transfection efficiency. The following example is illustrative.
(§4) Retinoids: All-trans-retinoic acid (RA) and 13-cis-retinoic acid (13-cis-RA) were obtained from Sigma. […] Retinoids were dissolved in dimethylsulfoxide for use in the transcriptional activation assays.
(§5) Co-transfection Assay In CV-1 Cells: A monkey kidney cell line, CV-1, was used in the cis-trans assay. Cells were transfected with two plasmids. […] The cis-vector contains an easily assayable gene product, in this case the firefly luciferase, coupled to a retinoid-responsive promoter, i.e., an RARE or RXRE. Addition of retinoic acid or an appropriate synthetic retinoid results in the formation of a retinoid-RAR or -RXR complex that activates the expression of luciferase gene, causing light to be emitted from cell extracts. The level of luciferase activity is directly proportional to the effectiveness of the retinoid-receptor complex in activating gene expression. This sensitive and reproducible co-transfection approach permits the identification of retinoids that interact with the different receptor isoforms.
(§6) Cells were cultured in DMEM supplemented with 10% charcoal resin-stripped fetal bovine serum, and experiments were conducted in 96-well plates. […] Cells were transfected for 6 h and then washed to remove the precipitate. The cells were then incubated for 36 h with or without retinoid. […]

RARα = biological target: T2, RARα (Homo sapiens, UniProt P10276); assay: co-transfection (cis-trans) assay in CV-1 cells, RARα; settings: for Emax: CV-1, maximal response relative to all-trans-retinoic acid at 10^-5 M, read-out: Efficacy RARα; for EC50: CV-1 cells, luciferase reporter, concentration giving 50% of maximal observed response, read-out: Potency (nM) RARα
T2 construct: expressed in transfected cells; host or cells: CV-1 (monkey kidney)
T2 sequence (P10276 1-462): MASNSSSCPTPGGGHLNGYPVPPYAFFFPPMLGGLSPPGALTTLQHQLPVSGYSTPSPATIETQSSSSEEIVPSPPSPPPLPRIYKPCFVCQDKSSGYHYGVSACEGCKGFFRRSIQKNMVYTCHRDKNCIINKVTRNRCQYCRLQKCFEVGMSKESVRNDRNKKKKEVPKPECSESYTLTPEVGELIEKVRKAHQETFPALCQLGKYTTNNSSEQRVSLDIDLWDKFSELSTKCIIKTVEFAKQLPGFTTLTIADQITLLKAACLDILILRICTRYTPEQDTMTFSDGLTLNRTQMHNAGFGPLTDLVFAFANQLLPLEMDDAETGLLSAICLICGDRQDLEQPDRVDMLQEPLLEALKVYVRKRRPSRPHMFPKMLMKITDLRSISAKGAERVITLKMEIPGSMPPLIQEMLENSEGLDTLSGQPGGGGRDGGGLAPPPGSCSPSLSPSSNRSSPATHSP
Source text: as §1, §2, §3, §4, §5, §6

RXRβ = biological target: T3, RXRβ (Mus musculus, UniProt P28704); assay: co-transfection (cis-trans) assay in CV-1 cells, RXRβ; settings: for Emax: CV-1, maximal response relative to all-trans-retinoic acid at 10^-5 M, read-out: Efficacy RXRβ; for EC50: CV-1 cells, luciferase reporter, concentration giving 50% of maximal observed response, read-out: Potency (nM) RXRβ
T3 construct: expressed in transfected cells; host or cells: CV-1 (monkey kidney)
T3 sequence (P28704 1-520): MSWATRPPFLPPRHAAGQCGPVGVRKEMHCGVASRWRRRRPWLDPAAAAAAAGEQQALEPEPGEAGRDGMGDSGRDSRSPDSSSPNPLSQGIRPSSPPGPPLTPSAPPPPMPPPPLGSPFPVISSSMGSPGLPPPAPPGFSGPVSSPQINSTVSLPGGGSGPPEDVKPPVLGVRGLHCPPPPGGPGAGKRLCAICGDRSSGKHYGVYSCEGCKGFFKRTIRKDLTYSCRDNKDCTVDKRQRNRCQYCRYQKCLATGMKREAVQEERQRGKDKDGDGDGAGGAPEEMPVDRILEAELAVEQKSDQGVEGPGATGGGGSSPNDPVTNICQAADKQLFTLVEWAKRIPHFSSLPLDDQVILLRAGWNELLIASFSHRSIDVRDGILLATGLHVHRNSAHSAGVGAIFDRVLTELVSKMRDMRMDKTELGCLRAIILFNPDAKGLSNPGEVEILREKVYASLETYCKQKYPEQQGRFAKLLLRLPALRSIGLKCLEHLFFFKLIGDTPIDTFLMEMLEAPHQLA
Source text: as §1, §2, §3, §4, §5
Cells were cultured in DMEM supplemented with 10% charcoal resin-stripped fetal bovine serum, and experiments were conducted in 96-well plates. […] Cells were transfected for 6 h and then washed to remove the precipitate. The cells were then incubated for 36 h with or without retinoid. After the transfection, all subsequent steps were performed on a Beckman Biomek Automated Workstation. […] All determinations were performed in triplicate in two independent experiments and were normalized for transfection efficiency by using β-galactosidase as the internal control. […] Efficacy values less than 5% are not statistically different than the 0% background.

`Cc1cc(C(C)(C)C)ccc1C(=NO)c1ccc(C(=O)O)cc1` [Compound 137, 4-[(2-methyl-4-t-butylphenyl)carbonyl]benzoic acid oxime] was tested. Which Emax (RARβ) did it give?
The Emax was < 2%.

And the EC50 (RARβ)?
The EC50 was > 10000 nM.

What about the Emax (RARα) of the same molecule?
Its Emax is < 2%.

And the EC50 (RARα)?
The EC50 was > 10000 nM.

What about the Emax (RXRβ) of the same molecule?
Its Emax is 57%.

What about the EC50 (RXRβ) of the same molecule?
The EC50 was 270 nM.

With `C=C(c1ccc(C(=O)O)cc1)c1ccc(C(C)(C)C)cc1C` [Compound 133, 4-[1-(2-methyl-4-t-butylphenyl)ethenyl]benzoic acid] as the molecule, how does the Emax (RARβ) read?
Its Emax is < 2%.

And the EC50 (RARβ)?
Its EC50 is > 10000 nM.

And the Emax (RARα)?
Its Emax is < 2%.

And the EC50 (RARα)?
The EC50 was > 10000 nM.

And the Emax (RXRβ)?
The Emax was 56%.

And the EC50 (RXRβ)?
The EC50 was 470 nM.
